4 molecules from patent US20140056866A1, “USE OF BIOLOGICAL OR CHEMICAL CONTROL AGENTS FOR CONTROLLING INSECTS AND NEMATODES IN RESISTANT CROPS” (priority 2010, published 2014) can be followed below.

One data set concerns D. virgifera. Kind of data set: Western corn rootworm root feeding damage, Node-Injury Scale (Example 3). In kind it is in vivo, Diabrotica virgifera. Conditions: for Root Damage Rating: 0 = undamaged, 3 = severely damaged. The method, then:
(§1) Zea Mays (Corn) seed from events traited with Axmi205 were selected. […] The population of the seed used is not entirely transgenic; plants without the trait in their DNA were used for control comparisons.
(§2) Seed was treated with seed applied pesticides using a hege bowl treater. Applications were made of: Clothianidin; available as Poncho though through Bayer CropScience. Rates were applied as mg ai/seed. The evaluation had non-target variables controlled.
(§3) During testing, samples of each plant were submitted for PCR to determine if an individual plant carried the Axmi205 gene (positive or negative). Plants for which no PCR results could be obtained were not included in the results.
(§4) Seed were planted into germination mix at a rate of one seed per root-trainer. Testing was conducted as a randomized complete block with 30 replications. Plants were maintained in a greenhouse and periodically assessed for emergence. After several weeks of growth, leaf samples were taken from plants and used to conduct insect bioassays on species of Lepidoptera. A leaf sample was placed into a Petri-dish and infested with 10 larvae of fall armyworm; Spodoptera frugiperda. After 48 hours dishes were evaluated for insect mortality and leaf feeding damage. When assessing leaf feeding, damage was recorded as a rating between 0-3, where zero was undamaged and three was severely damaged. After approximately three weeks from planting, plants were infested with Diabrotica virgifera (western corn rootworm). Western corn rootworm eggs were infested into the root system of plants. At approximately 15 days post infestation plants were extracted and insect feeding damage was evaluated following Iowa State University's Node-Injury Scale at www.ent.iastate.edu/pest/rootworm/nodeinjury/nodeinjury.html.

The test system of the next data set is S. frugiperda. Kind of data set: Leaf sample bioassay with fall armyworm larvae (Example 3). In kind it is in vivo. Conditions: for Insect Mortality / Leaf Feeding Rating: 48 hours; for Insect Mortality: Jul. 14, 2011; for Leaf Feeding Rating: scale 0 = undamaged to 3 = severe feeding; for additional increase in mortality in the presence of Axmi205: versus clothianidin alone; for increase in mortality above the negative control: Axmi205-negative plants. The protocol:
as §1, §2, §3, §4

Data set [1] has as its system Glycine max (soybean) roots. Description: WinRHIZO root image analysis of soybean (Example 2). In kind it is in vivo. The method, then: (§5) Glycine max (soybean) seed from an event traited with Axmi031 was selected. […] Plants that screened negative for the presence of the transgene were used for control comparisons.
(§6) Seed was treated with seed applied pesticides using a hege bowl treater. Metalaxyl (MTL), available as Allegiance through Bayer CropScience, was applied at rates of 2 and 4 g ai/100 kg seed. Trilex 2000 was also included as a commercial standard package.
(§7) During testing, samples of each plant were submitted for PCR to determine if an individual plant carried the Axmi031 gene (Positive or Negative). Plants for which no PCR results could be obtained were not included in results. There were a disproportionate number of positive plants. As a result, the number of negative plants available in some comparisons was very small.
(§8) Testing was conducted as a randomized complete block with 30 replications. Seed were planted into sand at a rate of one seed per pot. Plants were stored at 10° C. for eight days and then moved to 25° C. for the remainder of the test. Plants were periodically assessed for emergence. After several weeks of growth plants were evaluated for height. At approximately 40 days after planting, 5 random plants for each treatment comparison were selected for extraction. If fewer than 5 plants were available, evaluations were still conducted as long as a minimum of 3 plants could be assessed. Exacted plants were measured by hand to determine root length and mass and evaluated using WinRHIZO image analysis system (available through Regent instruments at www.regent.qc.ca/products/rhizo/WinRHIZO.html.

For another data set, the system named is Glycine max (soybean). Description: Soybean shoot height and plant mass after metalaxyl seed treatment (Example 2). The data set is classed as in vivo. The protocol: as §5, §6, §7, §8
A further data set has as its system SCN (inbred colony OP50). Description: SCN cyst counts on soybean pot plants, seed treated with fluopyram (Example 1). Conditions: base (color/coating) treatment only, two months after planting. The data set is classed as in vivo, soybean cyst nematodes. The method, then: Two tests were planted with Jack (an SCN resistant soybean variety with PI 88788 resistance) and two genetically modified Jack varieties (AXN2 and AXMI031) known to produce a nematicidal protein. The seed were treated with a color/coating base or the same base plus one of two different rates of fluopyram (experiment 1 used 0.075 mg fluopyram/seed and experiment 2 used 0.15 mg fluopyram/seed). The SCN used to inoculate both tests were collected from an inbred colony (OP50) with the ability to overcome PI 88788 resistance.
Tests were conducted as non-randomized blocks with a minimum of 10 replicates. Seed were planted in individual 4″ clay pots with coarse sand and inoculated with approximately 20,000 OP50 juveniles in ten equal inoculations beginning at planting and again approximately every third day. Plants were maintained in a germination chamber. Blocks were rotated approximately every third day to minimize potential influence of environmental variance. Two months after planting, plants were harvested and cysts were collected and counted to evaluate the efficacy of the nematicide and traits, both individually and in combination with each other.

Another data set concerns SCN (HG2.5.7). Description: SCN cyst counts on Axmi031 soybean treated with Bacillus firmus (Example 4, FIG. 2). The data set is classed as in vivo, soybean cyst nematodes. Conditions: Axmi031 expression. From the text: Soybeans (6-10 seeds each) in this study included: Control SB171 (transfected control with non gene of interest); SB 171 treated with Bacillus firmus CNCM I-1582 spore control plant; Axmi031 transgenic plant (which also contains non gene of interest); Axmi031 transgenic plant (which also contains non gene of interest) treated with Bacillus firmus CNCM I-1582 spore.
Soybeans (6-10 seeds/plant and treatment) were planted into 4″ clay pots in sand infested with approximately 37,000 SCN eggs (HG2.5.7) at time of planting. Soybean plants were reinfested with 20,000 SCN eggs (HG2.5.7) at approximately 4 weeks post planting. Plants were grown 57 days post reinfestation date. Cysts were harvested from each pot and counted. PCR and Western analysis were done on each AXMI031 plant. Negative segregants were removed from analysis. Data shown in FIG. 2 represents six plants for SB171 each treatment and all PCR/Western positive Axmi031 plants.

The mark [2] stands for this setting: metalaxyl 2 g ai added to Axmi031.
[3] abbreviates: metalaxyl 4 g ai added to Axmi031.

Take `CN/C(=N\[N+](=O)[O-])NCc1cnc(Cl)s1` [clothianidin]: the figures for the “Root Damage Rating” value in the data set with D. virgifera (CTD 0.125 mg ai/seed), with D. virgifera (CTD 0.25 mg ai/seed) and in the data set on D. virgifera (CTD 0.5 mg ai/seed) were 0.56, 0.32 and 0.04, respectively. The “reduction of root damage over the negative control” value in the data set on D. virgifera (highest rate of clothianidin tested (0.5 mg ai/seed)) was 96%; in the data set on D. virgifera (lowest rate of clothianidin tested (0.125 mg ai/seed)), 67%. Moreover, the “Insect Mortality” value turned out to be 8% with S. frugiperda (CTD 0.125 mg ai/seed), 12% with S. frugiperda (CTD 0.25 mg ai/seed) and 11% in the data set with S. frugiperda (CTD 0.5 mg ai/seed). Also, the “Leaf Feeding Rating” value in the data set on S. frugiperda (CTD 0.125 mg ai/seed) was 3.00; with S. frugiperda (CTD 0.25 mg ai/seed), 2.77; in the data set with S. frugiperda (CTD 0.5 mg ai/seed) it was 3.00. The entries for the “additional increase in mortality in the presence of Axmi205” value in the data set with S. frugiperda (clothianidin 0.125 mg ai/seed) and in the data set with S. frugiperda (clothianidin 0.5 mg ai/seed) were 88% and 54%, respectively. For the same molecule, the “increase in mortality above the negative control” value with S. frugiperda (highest rate of clothianidin (0.5 mg ai/seed)) was 57%; in the data set with S. frugiperda (lowest rate of clothianidin (0.125 mg ai/seed)) it was 14%; with S. frugiperda (middle rate of clothianidin (0.25 mg ai/seed)) it was 71%.
Regarding `COCC(=O)N(c1c(C)cccc1C)C(C)C(=O)OC` (stereo not drawn) [metalaxyl], in data set [1] (setting [2]), the “increase in root lengths” value is given as 60%, the “increase in root surface area” value was 42% and the “increase in root volume” value was 27%. In data set [1] (setting [3]), the “increase in root lengths” value is reported as 68%, the “increase in root surface area” value was 37% and the “increase in root volume” value is given as 11%. Moreover, in data set [1] (metalaxyl added to Axmi031, trend with rate), the “root tips, forks, and crossings” value was “increased as metalaxyl rate increased”. Also, the “plant shoot height, trend with rate” value in the data set with Glycine max (soybean) (metalaxyl 2 and 4 g ai/100 kg seed) is listed as “increased with increasing rates”. Besides, the “additional increase in plant total mass” value in the data set on Glycine max (soybean) (metalaxyl 2 g ai on Axmi031 plants) was determined as 5%. For the same molecule, the additional shoot height in the data set on Glycine max (soybean) (metalaxyl 2 g ai/100 kg seed on Axmi031 plants) was 5%. Further, the “increase in above ground plant mass compared to Axmi031 alone” value in the data set with Glycine max (soybean) (metalaxyl 4 g ai on Axmi031 plants) is given as 11%. Also, the additional shoot height in the data set on Glycine max (soybean) (metalaxyl 4 g ai/100 kg seed on Axmi031 plants) was 8%.

B1: Axn2: nematicidal protein trait expressed in genetically modified Jack soybean (gene axn2, Table 1) (protein, listed as Bacillus thuringiensis)
chain: MRIRRNQSTLSHNERLAFTNAVLELKRRPSRLPMSLGSTSRYDDYVYWHLQSMENQTSTTPGWAHRGPAFLPWHRYYLNQFEEDLQRIDHTVTLPYWDWTVDNSTDSSVPGSPWTDDFMGGDGDPTQEYTVTTGPFTGDNWKLTLFDHHENEPHNARLRRQLGTTLNASGNTISINLPTDSEVQNCLLETPYYVSPWRAGQDVNQPALNPTKPSFCNRLEGWYGAGSIHNKVHVWVAGATEGSMIWMSSPNDPVFFLHHANIDRLWVQWQANNPNEGYHPTGNGNEVGPTGHNLNDSMNPWGRKVTPNNVLNHYSLGYTYDTDSTPLSEIFMHTFNLKIRKEKQIKDGHFGLSQEDLDKL
Consider B1, for which the results for the “percent reduction in average number of cysts compared to Jack” value in the data set on SCN (inbred colony OP50) (first experiment) and in the data set with SCN (inbred colony OP50) (second experiment) were 20% and 43%, respectively.

B2: Axmi031: nematicidal protein trait expressed in genetically modified soybean (gene axmi031, Table 1) (protein)
chain: MDCNLQSQQNIPYNVLAIPVSNVNSLTDTVGDLKKAWEEFQKTGSFSLTALQQGFSASQGGTFNYLTLLQSGISLAGSFVPGGTFVAPIINMVIGWLWPHKNKNADTENLINLIDSEIQKQLNKALLDADRNEWSSYLESIFDSSNNLNGAIVDAQWSGTVNTTNRTLRNPTESDYTNVVTNFIAADGDIANNENHIMNGNFDVAAAPYFVIGATARFAAMQSYIKFCNAWIDKVGLSDAQLTTQKANLDRTKQNMRNAILNYTQQVMKVFKDSKNMPTIGTNKFSVDTYNVYIKGMTLNVLDIVAIWPSLYPDDYTSQTALEQTRVTFSNMVGQEEGTDGSLRIYNTFDSFSYQHSPIPNNNVNLISYYNDELQNLELGVYTPPKKGSGYSYPYGFVLNYANSKYKYGDSNDPESLGGLSTLSAPIQQVNAATQNSKYLDGEILNGIGASLPGYCTTGCSPTEPPFSCTSTANGYKASCNPSDTNQKINALYPFTQANVKGNTGKLGVLASLVSYDLNPKNVFGELDSDTNNVILKGIPAEKGYFPNNARPTVVKEWINGASAVPLDSGNTLFMTATNLTATQYRIRIRYANPNSNTQIGVRITQNGSLISSSNLTLYSTTDMNNTLPLNVYVIGENGNYTLQDLYNTTNVLSTGDITLQITGGDQKIFIDRIEFVPTMPVPGNTNNNNGNNNGNNNPPHHVCAIAGTQQSCSGPPKFEQVSDLEKITTQVYMLFKS
modifications: AXMI-031(A-D)
In the case of B2, the “percent reduction in average number of cysts compared to Jack” value is listed as 92% with SCN (inbred colony OP50) (first experiment) and 88% in the data set with SCN (inbred colony OP50) (second experiment). Further, the “SCN cyst counts in transgenic soybean plants” value in the data set on SCN (HG2.5.7) is recorded as “correlates with reduction in SCN cysts counts”. For the same molecule, the “WinRHIZO root values versus negative control” value in data set [1] (Axmi031 as an individual component) is on record as “comparable to, or slightly below, the negative control”. For the same molecule, in the data set with Glycine max (soybean) (28 days after planting (DAP), Axmi031 without metalaxyl), the “shoot length versus untreated negative control (UTC)” value turned out to be 14%. Moreover, the “increase in plant total mass” value with Glycine max (soybean) (presence of Axmi031, no metalaxyl) amounted to 13%.
